Measurements from US9493468B2, “Antifungal 5,6-dihydro-4H-pyrrolo[1,2-a][1,4]benzo-diazepines and 6H-pyrrolo[1,2-a][1,4]benzodiazepines substituted with heterocyclic derivatives” (Janssen Pharmaceutica NV, priority 2011, dated 2016).

Columns and labels:
Format in all cases: cell-based
[1] = tested on: Microsporum canis; assay: Antifungal activity in vitro, resazurin growth inhibition: Microsporum canis (B68128)
Description: (§1) The standard susceptibility screen is performed in 96-well plates (U-bottom, Greiner Bio-One). Serial dilutions (2-fold or 4-fold) of 20 mM compound stock solutions are made in 100% DMSO, followed by an intermediate dilution step in water. These serial dilutions (10 μl) are then spotted onto test-plates that can be stored in the dark at 4° C. for a maximum period of 2 weeks. An adequate broad dose-range is included with 64 μM as the highest in-test concentration. The culture medium RPMI-1640 is supplemented with L-glutamine, 2% glucose and buffered with 3-(N-morpholino)-propanesulfonic acid (MOPS) at pH 7.0±0.1.
(§2) The different fungal species/isolates (Table 3a) are cryopreserved and 1/1000 diluted in medium just prior to use. A standard inoculum of 200 μl containing 10^3 colony-forming unit (cfu) is then added to each well. A positive control (100% growth=fungal culture without antifungal) and a negative control (0% growth ═RPMI-MOPS medium) are included on each plate. Optimal incubation time and temperature are dependent on the fungal species and vary from 24 h for yeasts (37° C.) to one week or more for dermatophytes (27° C.). Inhibition of fungal growth is measured after adding 10 μl of 0.005% (w/v) resazurin (Sigma Aldrich) to each well, based on the principle that living cells convert the non-fluorescent blue resazurin into the pink and fluorescent resorufin, allowing fluorimetric reading (λex 550 nm and λem 590 nm) after an additional incubation period (‘resa’ time mentioned in Table 3a).

[2] = tested on: Trichophyton mentagrophytes; assay: Antifungal activity in vitro, resazurin growth inhibition: Trichophyton mentagrophytes (B70554)
Description: as §1, §2

[3] = tested on: Trichophyton rubrum; assay: Antifungal activity in vitro, resazurin growth inhibition: Trichophyton rubrum (B68183)
Description: as §1, §2

[4] = tested on: Sporothrix schenkii; assay: Antifungal activity in vitro, resazurin growth inhibition: Sporothrix schenkii (B62482)
Description: as §1, §2

[5] = tested on: Aspergillus fumigatus; assay: Antifungal activity in vitro, resazurin growth inhibition: Aspergillus fumigatus (B42928)
Description: as §1, §2

[6] = tested on: Candida parapsilosis; assay: Antifungal activity in vitro, resazurin growth inhibition: Candida parapsilosis (B66126)
Description: as §1, §2

[7] = tested on: Cryptococcus neoformans; assay: Antifungal activity in vitro, resazurin growth inhibition: Cryptococcus neoformans (B66663)
Description: as §1, §2

Row | SMILES | Inf. B: Microsporum canis B68128, pIC50 [1] | Inf. G: Trichophyton mentagrophytes B70554, pIC50 [2] | Inf. C: Trichophyton rubrum B68183, pIC50 [3] | Inf. A: Sporothrix schenkii B62482, pIC50 [4] | Inf. E: Aspergillus fumigatus B42928, pIC50 [5] | Inf. D: Candida parapsilosis B66126, pIC50 [6] | Inf. F: Cryptococcus neoformans B66663, pIC50 [7]
1 | Br.CCn1ccc(C2NCc3c(Cl)cccc3-n3cccc32)n1 (racemic) [Compound 10] | 4.25 | <4.19 | <4.19 | <4.19 | <4.19 | <4.19 | <4.19
2 | Clc1cccc2c1CNC(c1ccccn1)c1cccn1-2 (racemic) [Compound 11] | 4.73 | 4.72 | 4.71 | 4.49 | 4.31 | <4.19 | 4.93
3 | Cc1cccc(C2NCc3c(Cl)cccc3-n3cccc32)n1 (racemic) [Compound 12] | <4.49 | <4.49 | 4.92 | 4.59 | <4.49 | <4.49 | 4.82
4 | CCc1ccc(C2NCc3c(Cl)cccc3-n3cccc32)nc1.Cl (racemic) [Compound 13] | 5.40 | 5.00 | 5.70 | <4.19 | <4.19 | <4.19 | 4.52
5 | CCc1ccc(C2NCc3c(Cl)cccc3-n3cccc32)cn1.Cl (racemic) [Compound 14] | 5.30 | 4.74 | 5.30 | <4.19 | <4.19 | <4.19 | 4.28
6 | Cl.FC(F)(F)c1ccc(C2NCc3ccccc3-n3cccc32)cn1 (racemic) [Compound 15] | 4.25 | 4.56 | 4.70 | <4.19 | <4.19 | <4.19 | 4.92
7 | Cl.FC(F)(F)c1ccc(C2NCc3c(Cl)cccc3-n3cccc32)cn1 (racemic) [Compound 16] | 5.19 | 5.28 | 5.69 | <4.19 | <4.19 | <4.19 | 4.64
8 | Cl.Fc1cccc2c1CNC(c1ccc(C(F)(F)F)nc1)c1cccn1-2 (racemic) [Compound 17] | 4.46 | <4.19 | 4.71 | <4.19 | <4.19 | <4.19 | 4.23
9 | Cc1cccc2c1CNC(c1ccc(C(F)(F)F)nc1)c1cccn1-2.Cl (racemic) [Compound 18] | 5.05 | 4.62 | 5.52 | <4.19 | <4.19 | <4.19 | <4.19
10 | Cl.FC(F)(F)c1ccc(C2NCc3c(Cl)cc(Cl)cc3-n3cccc32)cn1 (racemic) [Compound 19] | 4.95 | 4.57 | 5.65 | <4.19 | <4.19 | <4.19 | 5.02
11 | Br.Clc1cccc2c1CNC(c1ccncc1)c1cccn1-2 (racemic) [Compound 21] | 5.04 | – | 5.52 | 4.70 | <4.19 | <4.19 | 4.66
12 | Br.Clc1ccc2c(c1)CNC(c1ccncc1)c1cccn1-2 (racemic) [Compound 22] | 5.22 | – | 5.10 | <4.19 | <4.19 | <4.19 | 4.32
13 | Br.Clc1ccc2c(c1)-n1cccc1C(c1ccncc1)NC2 (racemic) [Compound 23] | 4.72 | 4.39 | 5.00 | <4.19 | <4.19 | <4.19 | 4.57
14 | Br.Clc1cccc2c1-n1cccc1C(c1ccncc1)NC2 (racemic) [Compound 24] | 4.57 | <4.19 | 4.74 | <4.19 | <4.19 | <4.19 | <4.19
15 | Cc1ncc(C2NCc3c(Cl)cccc3-n3cccc32)cn1.Cl (racemic) [Compound 25] | 4.43 | <4.19 | 4.19 | <4.19 | <4.19 | <4.19 | <4.19
16 | Cl.FC(F)(F)c1ncc(C2NCc3c(Cl)cccc3-n3cccc32)cn1 (racemic) [Compound 26] | 4.92 | 4.44 | 5.10 | <4.19 | <4.19 | <4.19 | <4.19
17 | Cc1ccc(Cl)c2c1-n1cccc1C(c1cnc(C(F)(F)F)nc1)NC2.Cl (racemic) [Compound 27] | <4.90 | <4.90 | <4.90 | <4.90 | <4.90 | <4.90 | <4.90
18 | Clc1cccc2c1CN=C(c1ccc3nc[nH]c3c1)c1cccn1-2 [Compound 205] | – | <4 | <4 | <4 | <4 | <4 | <4
